One data set deals with B/Hong Kong/5/72 BVLV012. Briefly: Plaque reduction assay (PRA) in MDCK cells. It counts as cell-based, influenza virus. Conditions: MDCK, read-out: EC50 ng/ml PRA B/HongK.
In data set [1] the test system is A/Panama/2007/99 BVLV008 (H3N2). The data set is described as follows: Plaque reduction assay (PRA) in MDCK cells. Type of data set: cell-based, influenza virus. Conditions: Influenza A virus, H3N2, MDCK, plaque numbers reduced by 50%, read-out: EC50 ng/ml PRA A/Pan. For orientation: Plaques are areas of infected cells; plaque reduction assays count them against a control.

The test system of data set [2] is B/Yamanashi/166/98 BVLV007. Briefly: Plaque reduction assay (PRA) in MDCK cells. Conditions: unidentified influenza virus, MDCK, read-out: EC50 ng/ml PRA B/Yam, B/Yamanashi/166/98 BVLV007; plaque numbers reduced by 50%. It counts as cell-based, influenza virus.
Data set [3] deals with A/New Caledonia/20/99 BVLV008 (H1N1). Briefly: Plaque reduction assay (PRA) in MDCK cells. Type of data set: cell-based, influenza virus. Conditions: Influenza A virus, H1N1, MDCK, plaque numbers reduced by 50%, read-out: EC50 ng/ml PRA A/New.
In data set [4] the test system is A/Victoria/3/75 BVLV017 (H3N2). Briefly: Plaque reduction assay (PRA) in MDCK cells. It counts as cell-based, influenza virus. Conditions: Influenza A virus, H3N2, MDCK, plaque numbers reduced by 50%, read-out: EC50 ng/ml PRA A/Vic.
In data set [5] the test system is Escherichia coli ATTCC 25922. The data set is described as follows: Kirby-Bauer disk test, zones of inhibition. Conditions: 30 μg/disk; for zone of inhibition at 30 µg/disc: Escherichia coli, ATTCC25922, read-out: diameter of zone of inhibition, Escherichia coli ATTCC 25922. Type of data set: cell-based. As to the method:
(§1) Antibiotic activities were determined using a standard Kirby-Bauer* test and are reported as diameters (in mm) of zones of inhibition for test strains. All compounds were spotted at 30 μg/disk.

In data set [6] the test system is Staphylococcus aureus ATCC 29213. Briefly: Kirby-Bauer disk test, zones of inhibition. Type of data set: cell-based. Conditions: 30 μg/disk; for zone of inhibition at 30 µg/disc: Staphylococcus aureus, ATCC29213, read-out: diameter of zone of inhibition, Staphylococcus aureus ATCC 29213. As to the method:
as §1

Data set [7] concerns Pseudomonas aeuruginosa ATCC 27853. Briefly: Kirby-Bauer disk test, zones of inhibition. It counts as cell-based. Conditions: 30 μg/disk; for zone of inhibition at 30 µg/disc: Pseudomonas, ATCC27853, read-out: diameter of zone of inhibition, Pseudomonas aeuruginosa ATCC 27853. As to the method: as §1
Data set [8] has as its system Enterococcus faecalis ATCC 29212. The data set is described as follows: Kirby-Bauer disk test, zones of inhibition. It counts as cell-based. Conditions: 30 μg/disk; for zone of inhibition at 30 µg/disc: Enterococcus faecalis, ATCC29212, read-out: diameter of zone of inhibition, Enterococcus faecalis ATCC 29212. As to the method: as §1
The conditions of data set [9]: in vivo. As to the method: Rodents were anaesthetised with Ketamine/Domitor mixture according to standard procedures and dosed with compound of interest by the intra-nasal route at a dose volume of approximately 3.0 ml/kg. The rodent is held in the vertical position during dosing of 30 μL per nostril. At different time points, for example, 2, 8, 24, 48 and 168 hours post-dose, levels of compound in the lung tissue are assessed by analytical methods. Any analytical method suitable for detection of this type of compound may be used. The time at which levels of compound fall below the sensitivity of the analytical techniques identified will determine the residency time of the compound in lung tissue.

In brackets after ≈: the same amount, converted by molar mass.

As to `NC12CC3CC(CC(C3)C1)C2` [Amantadine], the EC50 in the data set with B/Hong Kong/5/72 BVLV012 is more than 10000 ng/mL; in data set [1], 157 ng/mL (≈ 1.04 µM); in [2], 2060 ng/mL (≈ 13.6 µM); in data set [3], 11 ng/mL (≈ 0.0727 µM); in data set [4], 220 ng/mL (≈ 1.45 µM).

As usually defined, the zone of inhibition is the extent of the growth-free halo in a diffusion test. As for `NCC[C@H](O)C(=O)N[C@@H]1C[C@H](N)[C@@H](O[C@H]2O[C@H](CN)[C@@H](O)[C@H](O)[C@H]2O)[C@H](O)[C@H]1O[C@H]1O[C@H](CO)[C@@H](O)[C@H](N)[C@H]1O` [Amikacin, reference compound], the zone of inhibition at 30 µg/disc in data set [5] is 18.5 mm; in data set [6], 18.2 mm; in data set [7], 18.4 mm; in data set [8], 6.7 mm.

Regarding `NCC1OC(OC2C(N)CC(N)C(OC3OC(COC(=O)NCCCCCCCCCCCCNC(=O)OCC4OC(OC5C(N)CC(N)C(OC6OC(CN)C(O)CC6N)C5O)C(O)C(N)C4O)C(O)C(N)C3O)C2O)C(N)CC1O` (centres unmarked) [Compound 1], the zone of inhibition at 30 µg/disc came to 7 mm in data set [5], 8.9 mm in data set [6], 6.3 mm in data set [7] and 6 mm in data set [8].

Regarding `NCC1OC(OC2C(N)CC(N)C(OC3OC(CN)C(O)C(N)C3O)C2O)C(N)CC1O` (centres unmarked) [Compound 2], the zone of inhibition at 30 µg/disc is 6.3 mm in [5], 18.2 mm in data set [6], 12.8 mm in data set [7] and 6.3 mm in data set [8].

`NCC1OC(OC2C(N)CC(N)C(OC3OC(COC(=O)Nc4ccc(Cc5ccc(NC(=O)OCC6OC(OC7C(N)CC(N)C(OC8OC(CN)C(O)CC8N)C7O)C(O)C(N)C6O)cc5)cc4)C(O)C(N)C3O)C2O)C(N)CC1O` (centres unmarked) [Compound 4]: the zone of inhibition at 30 µg/disc in data set [5] worked out at 7.9 mm; in [6], 9.3 mm; in data set [7], 9.2 mm; in data set [8] it was 6 mm.

Take `NCC1OC(OC2C(N)CC(N)C(OC3OC(CN4CCNCC4)C(O)C(N)C3O)C2O)C(N)CC1O` (centres unmarked) [Compound 5]: the zone of inhibition at 30 µg/disc in data set [5] worked out at 10.5 mm; in data set [6] it was 18.6 mm; in data set [7] it was 13.8 mm; in data set [8] it was 7.4 mm. In addition, in data set [9], the “nmole retained per gram of mouse lung after 7 days” value (“nmole retained per gram” for short) came out at 0.8 nmole per gram.

`NCC1OC(OC2C(N)CC(N)C(OC3OC(CN4CCN(C(=O)CCCCCCCCCCCCCC(=O)N5CCCN(CC6OC(OC7C(N)CC(N)C(OC8OC(CN)C(O)CC8N)C7O)C(O)C(N)C6O)C5)CC4)C(O)C(N)C3O)C2O)C(N)CC1O` (centres unmarked) [Compound 7]: the results for the zone of inhibition at 30 µg/disc in data set [5], in [7] and in data set [8] were 6.5 mm, 8.9 mm and 6.2 mm, respectively.

`NCC1OC(OC2C(N)CC(N)C(OC3OC(CN4CCN(C(=O)c5ccccc5-c5ccccc5C(=O)N5CCN(CC6OC(OC7C(N)CC(N)C(OC8OC(CN)C(O)CC8N)C7O)C(O)C(N)C6O)CC5)CC4)C(O)C(N)C3O)C2O)C(N)CC1O` (centres unmarked) [Compound 8]: the zone of inhibition at 30 µg/disc in data set [5] worked out at 11.4 mm; in data set [7] it was 12.1 mm; in [8], 6.2 mm. In addition, the “nmole retained per gram” value in [9] was 4.6 nmole per gram.

On to `NCC1OC(OC2C(N)CC(N)C(OC3OC(CNC(=O)Nc4ccc(Cc5ccc(NC(=O)NCC6OC(OC7C(N)CC(N)C(OC8OC(CN)C(O)CC8N)C7O)C(O)C(N)C6O)cc5)cc4)C(O)C(N)C3O)C2O)C(N)CC1O` (centres unmarked) [Compound 13], for which the zone of inhibition at 30 µg/disc in [5] came out at 7.1 mm; in data set [6], 8.6 mm; in data set [7] it was 8.9 mm; in [8] it was 6.5 mm.

As for `NCC1OC(OC2C(N)CC(N)C(OC3OC(CN4CCN(C(=O)Nc5ccc(Cc6ccc(NC(=O)N7CCN(CC8OC(OC9C(N)CC(N)C(OC%10OC(CN)C(O)CC%10N)C9O)C(O)C(N)C8O)CC7)cc6)cc5)CC4)C(O)C(N)C3O)C2O)C(N)CC1O` (centres unmarked) [Compound 15], the zone of inhibition at 30 µg/disc came to 7.7 mm in data set [5], 9 mm in [7] and 6.2 mm in data set [8].

As for `Cc1cc(C)c(NC(=O)N2CCN(CC3OC(OC4C(N)CC(N)C(OC5OC(CN)C(O)CC5N)C4O)C(O)C(N)C3O)CC2)c(C)c1NC(=O)N1CCN(CC2OC(OC3C(N)CC(N)C(OC4OC(CN)C(O)CC4N)C3O)C(O)C(N)C2O)CC1` (centres unmarked) [Compound 16], the zone of inhibition at 30 µg/disc was 6.5 mm in data set [5], 10.1 mm in [7] and 6.2 mm in data set [8]. Also, the “nmole retained per gram” value in [9] is reported as 2.8 nmole per gram.

As for `NCC1OC(OC2C(N)CC(N)C(OC3OC(CN4CCN(Cc5cccc(CN6CCN(CC7OC(OC8C(N)CC(N)C(OC9OC(CN)C(O)CC9N)C8O)C(O)C(N)C7O)CC6)c5)CC4)C(O)C(N)C3O)C2O)C(N)CC1O` (centres unmarked) [Compound 17], the zone of inhibition at 30 µg/disc in data set [5] was found to be 6.5 mm; in [7], 8.5 mm; in data set [8] it was 6.2 mm.

Consider `NC1CC(O)C(CNC(=O)NCCCCCCCCCCCCNC(=O)NCC2OC(OC3C(N)CC(N)C(OC4OC(CO)C(O)C(N)C4O)C3O)C(N)CC2O)OC1OC1C(N)CC(N)C(OC2OC(CO)C(O)C(N)C2O)C1O` (centres unmarked) [Compound 18], for which the zone of inhibition at 30 µg/disc came out at 7.6 mm in data set [5], 10.4 mm in [7] and 6.2 mm in data set [8]. Further, the “nmole retained per gram” value in [9] is 6.6 nmole per gram.

For the compound `NCC1OC(OC2C(N)CC(N)C(OC3OC(CN4CCN(C(=O)Nc5ccc(NC(=O)N6CCN(CC7OC(OC8C(N)CC(N)C(OC9OC(CN)C(O)CC9N)C8O)C(O)C(N)C7O)CC6)cc5)CC4)C(O)C(N)C3O)C2O)C(N)CC1O` (centres unmarked) [Compound 19], the zone of inhibition at 30 µg/disc in [5] came out at 12.1 mm; in data set [7] it was 12.8 mm; in data set [8], 6.2 mm.

With `NCC1OC(OC2C(N)CC(N)C(OC3OC(CN4CCN(CCCCCCCCCCCCN5CCN(CC6OC(OC7C(N)CC(N)C(OC8OC(CN)C(O)CC8N)C7O)C(O)C(N)C6O)CC5)CC4)C(O)C(N)C3O)C2O)C(N)CC1O` (centres unmarked) [Compound 20], the zone of inhibition at 30 µg/disc in data set [5] was 7.8 mm; in [7], 7.5 mm; in data set [8], 6.2 mm.

With `NCC1OC(OC2C(N)CC(N)C(OC3OC(CNCCCCNC(=O)Nc4ccc(Cc5ccc(NC(=O)NCCCCNCC6OC(OC7C(N)CC(N)C(OC8OC(CN)C(O)CC8N)C7O)C(O)C(N)C6O)cc5)cc4)C(O)C(N)C3O)C2O)C(N)CC1O` (centres unmarked) [Compound 22], in data set [7], the zone of inhibition at 30 µg/disc amounted to 6 mm.

As to `NCC1OC(OC2C(N)CC(N)C(OC3OC(CN4CCN(C(=O)CCC(=O)N5CCN(CC6OC(OC7C(N)CC(N)C(OC8OC(CN)C(O)CC8N)C7O)C(O)C(N)C6O)CC5)CC4)C(O)C(N)C3O)C2O)C(N)CC1O` (centres unmarked) [Compound 25], the zone of inhibition at 30 µg/disc in [7] was found to be 6 mm.

In the case of `NC[C@H]1O[C@H](O[C@H]2[C@H](O)[C@@H](O[C@H]3O[C@H](CO)[C@@H](O)[C@H](N)[C@H]3O)[C@H](N)C[C@@H]2N)[C@H](O)[C@@H](O)[C@@H]1O` [Kanamycin A, reference compound], the “diameter of zone of inhibition, Escherichia coli ATTCC 25922” value in [5] is listed as 18.2 mm. Further, in data set [6], the “diameter of zone of inhibition, Staphylococcus aureus ATCC 29213” value is listed as 19.1 mm. Besides, the “diameter of zone of inhibition, Pseudomonas aeuruginosa ATCC 27853” value in data set [7] is listed as 6.2 mm. In addition, the “diameter of zone of inhibition, Enterococcus faecalis ATCC 29212” value in [8] is 6.7 mm.

As to `CCOC(=O)C1=C[C@@H](OC(CC)CC)[C@H](NC(C)=O)[C@@H](N)C1` [Oseltamivir], the EC50 with B/Hong Kong/5/72 BVLV012 turned out to be 32 ng/mL (≈ 0.102 µM); in data set [1] it was 0.3 ng/mL (≈ 0.00096 µM); in data set [2], 0.7 ng/mL (≈ 0.00224 µM); in data set [3], 0.23 ng/mL (≈ 0.000736 µM); in [4], 0.11 ng/mL (≈ 0.000352 µM).

For `NC[C@H]1O[C@H](O[C@H]2[C@H](O)[C@@H](O[C@H]3O[C@H](CO)[C@@H](O)[C@H](N)[C@H]3O)[C@H](N)C[C@@H]2N)[C@H](N)C[C@@H]1O` [Tobramycin, reference compound], the zone of inhibition at 30 µg/disc in data set [5] turned out to be 18.4 mm; in data set [6] it was 26.7 mm; in data set [7], 24.9 mm; in data set [8], 15.7 mm. In addition, the “nmole retained per gram” value in data set [9] is recorded as 2.1 nmole per gram.

For Neomycin [reference compound], the “diameter of zone of inhibition, Escherichia coli ATTCC 25922” value in [5] stood at 14.4 mm. Besides, the “diameter of zone of inhibition, Staphylococcus aureus ATCC 29213” value in data set [6] amounted to 16.8 mm. The “diameter of zone of inhibition, Pseudomonas aeuruginosa ATCC 27853” value in data set [7] is 7.1 mm. Also, the “diameter of zone of inhibition, Enterococcus faecalis ATCC 29212” value in data set [8] is 6.7 mm.
